Assay results from ChEMBL document CHEMBL2311464, “Potent inhibitors of CDK5 derived from roscovitine: synthesis, biological evaluation and molecular modelling” (Bioorg Med Chem Lett, 2013).

Experiments:
[1] = target: Cyclin-dependent kinase 2/cyclin A (Homo sapiens, UniProt P24941); experiment: Inhibition of recombinant human CDK2/cyclin A after 30 mins by scintillation counting; type: protein-complex assay
[2] = Inhibition of porcine brain CK1 delta/epsilon using RRKHAAIGpSAYSITA as substrate measured after 30 mins by scintillation counting; design: species or system Sus scrofa
[3] = target: Glycogen synthase kinase-3 (Sus scrofa, UniProt B2LUN4+I6LNT8); experiment: Inhibition of porcine GSK-3alpha/beta using YRRAAVPPSPSLSRHSSPHQSpEDEEE as substrate measured after 30 mins by scintillation counting
cells = conditions: Homo sapiens, SH-SY5Y, 48 h
Description: Cytotoxicity against human SH-SY5Y cells after 48 hrs by MTS assay

[4] = target: Cyclin-dependent kinase 5/CDK5 activator 1 (Homo sapiens, UniProt Q00535); experiment: Inhibition of recombinant human CDK5/p25 after 30 mins by scintillation counting; type: protein-complex assay
Sus scrofa = species on record: Sus scrofa; experiment: Inhibition of porcine brain CK1 delta/epsilon using RRKHAAIGpSAYSITA as substrate at 0.1 uM measured after 30 mins by scintillation counting
[5] = target: Dual specificity tyrosine-phosphorylation-regulated kinase 1A (Homo sapiens, UniProt Q13627); experiment: Inhibition of recombinant GST-fused human DYRK1A expressed in Escherichia coli using KKISGRLSPIMTEQ as substrate
SH-SY5Y [6] = experiment: Ratio of roscovitine IC50 to compound IC50 for human SH-SY5Y cells after 48 hrs by MTS assay; type: functional
SH-SY5Y [7] = experiment: Ratio of DRF53 IC50 to compound IC50 for human SH-SY5Y cells after 48 hrs by MTS assay; type: functional
[8] = target: Cyclin-dependent kinase 1/cyclin B1 (Homo sapiens, UniProt P06493); experiment: Inhibition of CDK2/cyclin B (unknown origin) after 30 mins by scintillation counting
Sequence of Cyclin-dependent kinase 1/cyclin B1 (P06493 whole entry): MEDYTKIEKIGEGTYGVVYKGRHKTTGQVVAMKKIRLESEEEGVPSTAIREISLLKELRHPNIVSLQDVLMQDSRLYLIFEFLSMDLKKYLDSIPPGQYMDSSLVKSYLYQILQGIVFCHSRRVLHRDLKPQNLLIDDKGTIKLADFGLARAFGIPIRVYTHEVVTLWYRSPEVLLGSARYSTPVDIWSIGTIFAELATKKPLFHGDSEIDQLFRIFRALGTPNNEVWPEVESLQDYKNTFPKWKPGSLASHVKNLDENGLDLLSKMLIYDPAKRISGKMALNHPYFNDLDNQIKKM
Sequence of Cyclin-dependent kinase 1/cyclin B1 (P14635 whole entry, further chain): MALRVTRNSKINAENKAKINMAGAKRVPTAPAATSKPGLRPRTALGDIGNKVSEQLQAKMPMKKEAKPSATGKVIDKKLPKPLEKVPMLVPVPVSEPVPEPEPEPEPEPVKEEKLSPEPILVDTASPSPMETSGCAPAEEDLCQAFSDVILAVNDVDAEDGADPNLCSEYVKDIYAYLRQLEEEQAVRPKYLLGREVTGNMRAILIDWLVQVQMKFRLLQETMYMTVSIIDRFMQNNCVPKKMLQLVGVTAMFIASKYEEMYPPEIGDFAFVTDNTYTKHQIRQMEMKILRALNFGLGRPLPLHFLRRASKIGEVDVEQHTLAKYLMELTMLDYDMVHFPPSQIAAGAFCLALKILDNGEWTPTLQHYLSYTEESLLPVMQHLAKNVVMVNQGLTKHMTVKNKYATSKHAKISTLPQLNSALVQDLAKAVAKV

Sequence of Cyclin-dependent kinase 5/CDK5 activator 1 (Q00535 whole entry): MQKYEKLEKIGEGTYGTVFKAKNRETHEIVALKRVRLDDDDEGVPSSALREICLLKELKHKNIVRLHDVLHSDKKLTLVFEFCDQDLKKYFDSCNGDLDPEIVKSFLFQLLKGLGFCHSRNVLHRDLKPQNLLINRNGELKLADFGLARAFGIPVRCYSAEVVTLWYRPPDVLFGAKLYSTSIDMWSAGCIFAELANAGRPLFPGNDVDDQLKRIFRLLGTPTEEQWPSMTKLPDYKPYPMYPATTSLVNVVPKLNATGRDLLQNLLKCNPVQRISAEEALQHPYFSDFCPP
Sequence of Cyclin-dependent kinase 5/CDK5 activator 1 (Q15078 whole entry, further chain): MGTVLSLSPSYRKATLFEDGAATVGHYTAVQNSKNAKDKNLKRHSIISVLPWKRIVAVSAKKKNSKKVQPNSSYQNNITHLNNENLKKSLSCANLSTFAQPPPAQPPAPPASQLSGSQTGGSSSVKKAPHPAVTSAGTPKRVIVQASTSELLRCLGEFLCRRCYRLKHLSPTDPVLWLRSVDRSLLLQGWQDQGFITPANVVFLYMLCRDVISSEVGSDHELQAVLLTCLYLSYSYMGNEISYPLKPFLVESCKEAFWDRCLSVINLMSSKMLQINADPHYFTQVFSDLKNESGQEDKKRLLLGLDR

SMILES | IC50 [1] | IC50 [2] | IC50 [3] | IC50 (cells) | IC50 [4] | inhibition (Sus scrofa) | IC50 [5] | Ratio IC50 (SH-SY5Y [6]) | Ratio IC50 (SH-SY5Y [7]) | IC50 [8]
CC[C@H](CO)Nc1nc(Nc2ccncn2)c2ncn(C(C)C)c2n1 | 1200 nM | 5800 nM | > 10000 nM | – | – | – | – | – | – | –
CC(C)n1cnc2c(Nc3ccnnc3)nc(Cl)nc21 | 1600 nM | 1100 nM | > 10000 nM | 1800 nM | 3000 nM | – | – | – | – | –
CC(C)[C@@H](CO)Nc1nc(Nc2ncccn2)c2ncn(C(C)C)c2n1 | 9000 nM | > 10000 nM | > 10000 nM | 1800 nM | 10000 nM | – | – | – | – | –
CC[C@H](CO)Nc1nc(Nc2ccncc2)c2ncn(C(C)C)c2n1 | 38 nM | 1000 nM | > 10000 nM | 1800 nM | 17 nM | – | – | – | – | –
CC(C)[C@@H](CO)Nc1nc(Nc2cccnc2)c2ncn(C(C)C)c2n1 | 120 nM | 2700 nM | > 10000 nM | 1800 nM | 300 nM | – | – | – | – | –
CC[C@@H](CO)Nc1nc(Nc2ncccn2)c2ncn(C(C)C)c2n1 | 7300 nM | > 10000 nM | > 10000 nM | 1800 nM | 11000 nM | – | – | – | – | –
CC[C@H](CO)Nc1nc(Nc2ccccn2)c2ncn(C(C)C)c2n1 | 1000 nM | 6200 nM | 33000 nM | 1800 nM | 2300 nM | – | – | – | – | –
CC[C@H](CO)Nc1nc(Nc2cncnc2)c2ncn(C(C)C)c2n1 | 18 nM | 600 nM | > 10000 nM | 1800 nM | 42 nM | – | – | – | – | –
CC[C@@H](CO)Nc1nc(Nc2ccnnc2)c2ncn(C(C)C)c2n1 | 29 nM | 1000 nM | 7300 nM | 1800 nM | 42 nM | – | – | – | – | –
CC(C)[C@H](CO)Nc1nc(Nc2cncnc2)c2ncn(C(C)C)c2n1 | 20 nM | 1300 nM | 5000 nM | 1800 nM | 38 nM | – | – | – | – | –
CC[C@H](CO)Nc1nc(Nc2cccnc2)c2ncn(C(C)C)c2n1 | 50 nM | 1000 nM | 10000 nM | 1800 nM | 25 nM | – | – | – | – | –
CC(C)[C@H](CO)Nc1nc(Nc2ncccn2)c2ncn(C(C)C)c2n1 | > 10000 nM | > 10000 nM | > 10000 nM | 1800 nM | > 10000 nM | – | – | – | – | –
CC(C)n1cnc2c(Nc3cnccn3)nc(Cl)nc21 | 3100 nM | 7000 nM | > 10000 nM | 1800 nM | 12000 nM | – | – | – | – | –
CC(C)[C@@H](CO)Nc1nc(Nc2cncnc2)c2ncn(C(C)C)c2n1 | 110 nM | 2000 nM | 16000 nM | 1800 nM | 370 nM | – | – | – | – | –
CC(C)[C@H](CO)Nc1nc(Nc2cccc(Cl)c2)c2ncn(C(C)C)c2n1 | – | – | – | – | – | 100% | – | – | – | –
CC(C)n1cnc2c(Nc3ncccn3)nc(Cl)nc21 | > 10000 nM | 8000 nM | > 10000 nM | 1800 nM | > 10000 nM | – | > 10000 nM | 5 | 5 | –
CC(C)[C@H](CO)Nc1nc(Nc2ccnnc2)c2ncn(C(C)C)c2n1 | 28 nM | 800 nM | 6000 nM | 1800 nM | 41 nM | – | – | – | – | –
CC[C@@H](CO)Nc1nc(Nc2ccncc2)c2ncn(C(C)C)c2n1 | 50 nM | > 1000 nM | 6000 nM | 1800 nM | 50 nM | – | – | – | – | –
CC(C)[C@H](CO)Nc1nc(Nc2ccncn2)c2ncn(C(C)C)c2n1 | 330 nM | 2800 nM | > 10000 nM | 1800 nM | 730 nM | – | – | – | – | –
CC[C@@H](CO)Nc1nc(Nc2ccncn2)c2ncn(C(C)C)c2n1 | 2000 nM | 8300 nM | > 10000 nM | – | – | – | – | – | – | –

SMILES | IC50 [1] | IC50 [2] | IC50 [3] | IC50 (cells) | IC50 [4] | inhibition (Sus scrofa) | IC50 [5] | Ratio IC50 (SH-SY5Y [6]) | Ratio IC50 (SH-SY5Y [7]) | IC50 [8]
CC[C@H](CO)Nc1nc(Nc2ncccn2)c2ncn(C(C)C)c2n1 | > 10000 nM | > 10000 nM | > 10000 nM | 1800 nM | > 10000 nM | – | – | – | – | –
CC(C)n1cnc2c(Nc3ccccn3)nc(Cl)nc21 | 6200 nM | 3000 nM | > 10000 nM | 1800 nM | 2100 nM | – | – | – | – | –
CC[C@@H](CO)Nc1nc(Nc2cncnc2)c2ncn(C(C)C)c2n1 | 23 nM | 930 nM | > 10000 nM | 1800 nM | 76 nM | – | – | – | – | –
CC(C)n1cnc2c(Nc3ccncn3)nc(Cl)nc21 | 13000 nM | 8000 nM | > 10000 nM | 1800 nM | > 10000 nM | – | > 10000 nM | 5 | 5 | –
CC(C)[C@H](CO)Nc1nc(Nc2ccncc2)c2ncn(C(C)C)c2n1 | 20 nM | 1800 nM | 12000 nM | 1800 nM | 21 nM | – | – | – | – | –
CC(C)[C@H](CO)Nc1nc(Nc2cccnc2)c2ncn(C(C)C)c2n1 | 18 nM | 2200 nM | 7300 nM | 1800 nM | 22 nM | – | – | – | – | –
CC(C)[C@@H](CO)Nc1nc(Nc2ccccn2)c2ncn(C(C)C)c2n1 | 1200 nM | 11000 nM | > 10000 nM | 1800 nM | 1900 nM | – | – | – | – | –
CC[C@H](CO)Nc1nc(NCc2ccccc2)c2ncn(C(C)C)c2n1 [SELICICLIB] | – | 2300 nM | – | 17400 nM | – | – | – | – | – | –
CC(C)[C@@H](CO)Nc1nc(Nc2ccncn2)c2ncn(C(C)C)c2n1 | 790 nM | 4900 nM | 22000 nM | 1800 nM | 3200 nM | – | – | – | – | –
CC(C)n1cnc2c(Nc3ccncc3)nc(Cl)nc21 | 700 nM | 2100 nM | 18000 nM | 1800 nM | 7400 nM | – | – | – | – | –
CC[C@H](CO)Nc1nc(Nc2ccnnc2)c2ncn(C(C)C)c2n1 | 72 nM | 500 nM | 13000 nM | 1800 nM | 60 nM | – | – | – | – | –
CC[C@@H](CO)Nc1nc(Nc2cccnc2)c2ncn(C(C)C)c2n1 | 14 nM | 2000 nM | > 10000 nM | 1800 nM | 90 nM | – | – | – | – | –
CC(C)[C@@H](CO)Nc1nc(Nc2ccncc2)c2ncn(C(C)C)c2n1 | 130 nM | 3300 nM | 7800 nM | 1800 nM | 200 nM | – | – | – | – | –
CC[C@@H](CO)Nc1nc(Nc2ccccn2)c2ncn(C(C)C)c2n1 | 530 nM | 12000 nM | 21000 nM | 1800 nM | 4100 nM | – | – | – | – | –
CC(C)n1cnc2c(Nc3cncnc3)nc(Cl)nc21 | 180 nM | 2300 nM | > 10000 nM | 1800 nM | 2800 nM | – | – | – | – | –
CC(C)n1cnc2c(Nc3cncnc3)nc(Nc3cncnc3)nc21 | 170 nM | 220 nM | > 10000 nM | 1800 nM | 360 nM | – | – | – | – | –
CC[C@H](CO)Nc1nc(Nc2cccc(-c3ccccn3)c2)c2ncn(C(C)C)c2n1 | – | 14 nM | – | – | 80 nM | – | – | – | – | 220 nM
CC(C)n1cnc2c(Nc3cccnc3)nc(Cl)nc21 | 680 nM | 2100 nM | > 10000 nM | 1800 nM | 1100 nM | – | – | – | – | –
CC(C)[C@H](CO)Nc1nc(Nc2ccccn2)c2ncn(C(C)C)c2n1 | 800 nM | 6200 nM | > 10000 nM | 1800 nM | 1100 nM | – | – | – | – | –
CC(C)[C@@H](CO)Nc1nc(Nc2ccnnc2)c2ncn(C(C)C)c2n1 | 120 nM | 1900 nM | 4300 nM | 1800 nM | 230 nM | – | – | – | – | –
